The text below walks through data of patent US20260258064A1 (SIRONAX LTD., priority 2023, published 2026).

For this assay, the target named is T1, SARM1 (50-724) (Homo sapiens, UniProt Q6SZW1).
T1 construct: Purified SARM1 (50-724) with a final concentration of 2 nM was pre-incubated with a test compound
T1 sequence (Q6SZW1 50-724): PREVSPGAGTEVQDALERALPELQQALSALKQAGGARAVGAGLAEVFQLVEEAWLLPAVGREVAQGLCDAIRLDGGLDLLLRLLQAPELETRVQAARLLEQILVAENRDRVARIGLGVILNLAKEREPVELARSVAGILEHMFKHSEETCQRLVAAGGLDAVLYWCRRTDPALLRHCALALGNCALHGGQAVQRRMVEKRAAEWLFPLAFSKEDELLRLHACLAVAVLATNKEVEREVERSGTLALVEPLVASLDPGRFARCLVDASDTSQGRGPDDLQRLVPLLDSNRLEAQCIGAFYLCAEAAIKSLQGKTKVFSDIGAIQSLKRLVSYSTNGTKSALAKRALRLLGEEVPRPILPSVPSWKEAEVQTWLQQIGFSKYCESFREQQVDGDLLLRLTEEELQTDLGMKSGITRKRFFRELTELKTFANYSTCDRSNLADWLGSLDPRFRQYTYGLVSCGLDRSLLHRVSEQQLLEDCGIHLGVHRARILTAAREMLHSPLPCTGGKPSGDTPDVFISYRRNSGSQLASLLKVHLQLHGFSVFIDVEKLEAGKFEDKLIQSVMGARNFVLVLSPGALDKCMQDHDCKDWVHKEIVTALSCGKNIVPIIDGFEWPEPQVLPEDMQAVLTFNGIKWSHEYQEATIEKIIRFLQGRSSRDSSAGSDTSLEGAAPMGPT
Put plainly: SARM1 (50-724) enzymatic assay (LC-MS/MS). It counts as biochemical. The conditions noted are these: Purified SARM1 (50-724) 2 nM, NMN as activator, NAD+ as substrate, 1 h at room temperature, read-out: IC50 (SARM1 inhibitory activity). The essentials:
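Reaction buffer was Dulbecco's PBS. Compound and 2 nM human SARM1 (50-724) were pre-incubated 15 min at room temperature, then […] NAD^+ and 200 µM NMN activator were added for 1 h at room temperature. Acetonitrile (70%) stop, LC-MS/MS read-out, IC50 values.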

Broadly, the IC50 is the concentration that gives 50% inhibition. With `CCC(=O)c1cc(F)c2[nH]c(-c3nncn3-c3cnccc3C(F)(F)F)nc2c1` [Compound 452, 1-(4-fluoro-2-(4-(4-(trifluoromethyl)pyridin-3-yl)-4H-1,2,4-triazol-3-yl)-1H-benzo[d]imidazol-6-yl)propan-1-one], the IC50 was not above 100 nM.

Take `FC1(F)CN(Cc2nnc(-c3nc4cc(C(F)(F)F)ccc4[nH]3)n2-c2cccc(Cl)c2Cl)C1` [Compound 157, 2-(4-(2,3-dichlorophenyl)-5-((3,3-difluoroazetidin-1-yl)methyl)-4H-1,2,4-triazol-3-yl)-5-(trifluoromethyl)-1H-benzo[d]imidazole]: the IC50 is not above 100 nM.

On to `Cc1cc(-c2ccc3[nH]c(-c4nncn4-c4cccc(Cl)c4Cl)nc3c2)n(C)n1` [Example 74, 2-(4-(2,3-dichlorophenyl)-4H-1,2,4-triazol-3-yl)-5-(1,3-dimethyl-1H-pyrazol-5-yl)-1H-benzo[d]imidazole], for which the IC50 is not above 100 nM.

For the compound `FC(F)(F)c1ccc2[nH]c(-c3scnc3-c3cccc(Cl)c3Cl)nc2c1` [Example 42], the IC50 lay within 500 to 1000 nM.

Take `O=S1(c2cc(F)c3[nH]c(-c4nncn4-c4cnccc4C(F)(F)F)nc3c2)=NCCC1` (centres unmarked) [Compound 424, 1-[7-fluoro-2-[4-[4-(trifluoromethyl)-3-pyridyl]-1,2,4-triazol-3-yl]-1H-benzimidazol-5-yl]-4,5-dihydro-3H-isothiazole 1-oxide]: the IC50 is more than 1000 nM.

For `Fc1cc(C(F)(F)F)cc2nc(-c3nncn3-c3cnccc3C(F)(F)F)[nH]c12` [Compound 233, 7-Fluoro-5-(trifluoromethyl)-2-(4-(4-(trifluoromethyl)pyridin-3-yl)-4H-1,2,4-triazol-3-yl)-1H-benzo[d]imidazole], the IC50 is not above 100 nM.

On to `CS(=O)(=O)c1cccc(-n2cnnc2-c2nc3cc(C(F)(F)F)ccc3[nH]2)c1` [Example 52], for which the IC50 was more than 1000 nM.

Consider `Cc1cnc(-c2cc(F)c3[nH]c(-c4nncn4-c4cnccc4C(F)(F)F)nc3c2)s1` [Compound 409, 2-[7-fluoro-2-[4-[4-(trifluoromethyl)-3-pyridyl]-1,2,4-triazol-3-yl]-1H-benzimidazol-5-yl]-5-methyl-thiazole], for which the IC50 is not above 100 nM.

In the case of `Oc1cc(F)c(Cl)c(-n2cnnc2-c2nc3cc(C(F)(F)F)ccc3[nH]2)c1` [Compound 207, 4-chloro-3-fluoro-5-(3-(5-(trifluoromethyl)-1H-benzo[d]imidazol-2-yl)-4H-1,2,4-triazol-4-yl)phenol], the IC50 was not above 100 nM.

Consider `Cc1ccc2[nH]c(-n3[nH]c(=O)nc3-c3cccc(Cl)c3Cl)nc2c1` [Compound 26, 5-(2,3-dichlorophenyl)-1-(5-methyl-1H-benzo[d]imidazol-2-yl)-1,2-dihydro-3H-1,2,4-triazol-3-one], for which the IC50 was more than 1000 nM.

For `CC(C)(O)c1ccc2[nH]c(-c3nnccc3-c3cnccc3C(F)(F)F)nc2c1` [Compound 323], the 50% inhibitory concentration (IC50) is not above 100 nM.

In the case of `CC1(c2ccc3[nH]c(-c4nncn4-c4cccc(F)c4Cl)nc3c2)CS(=O)(=O)C1` [Compound 178, 3-(2-(4-(2-chloro-3-fluorophenyl)-4H-1,2,4-triazol-3-yl)-1H-benzo[d]imidazol-5-yl)-3-methylthietane 1,1-dioxide], the IC50 is 100 to 500 nM.

For the compound `CC(c1cc(F)c2[nH]c(-c3nncn3-c3cnccc3C(F)(F)F)nc2c1)C(F)(F)F` (centres unmarked) [Compound 278, 7-fluoro-2-(4-(4-(trifluoromethyl)pyridin-3-yl)-4H-1,2,4-triazol-3-yl)-5-(1,1,1-trifluoropropan-2-yl)-1H-benzo[d]imidazole], the IC50 was not above 100 nM.

Regarding `Oc1cc(F)c(Cl)c(-n2cnnc2-c2nc3cc(C(F)(F)F)cc(F)c3[nH]2)c1` [Compound 206, 4-chloro-3-fluoro-5-(3-(7-fluoro-5-(trifluoromethyl)-1H-benzo[d]imidazol-2-yl)-4H-1,2,4-triazol-4-yl)phenol], the IC50 is not above 100 nM.
